Results published in patent publication US20080027023A1, “Antiproliferative Compositions Comprising Aryl Substituted Xylopyranoside Derivatives” (priority 2004, published 2008).

Key:
[1] = tested on: rat C6 glioma cells implanted subcutaneously; test: Subcutaneous C6 glioma tumors in SCID mice; format: in vivo
Procedure: (§1) Treatment with xyloside was daily contralateral subcutaneous injections (1.7 mM solution; 0.5 ml for mice, 5 ml for rats) for 2 weeks. DFMO (0.1% w/v) was administered via the drinking water.
(§2) Female SCIDnodCA mice (7-8 weeks old) or Fisher rats (12 week old) were kept under pathogen-free conditions in the animal barrier facility at the Biomedical Center, Lund University, according to the Swedish guidelines for humane treatment of laboratory animals. The experimental set-up was approved by the ethical committee for animal research in Malmö/Lund, Sweden. To generate tumors, rat C6 glioma cells or human bladder T24 carcinoma cells (1×10^6 cells in 200 μl PBS) were injected subcutaneously in the dorsal region of 7-8 week old mice (n=4-8) or intracerebrally in rats.
(§3) In the present studies, animals (n=8) received 1.7 mM Xyl-2-Nap-6-OH, i.e. a saturated solution, either ad libitum via the drinking water, or by daily injections either subcutaneously (0.5 ml for mice, 5 ml for rats) or intraperitoneally (0.5 ml) for a total period of up to 2 weeks. Controls received drinking water with no additives or daily injections with sterile water. Food and water intake and changes in body weight were monitored. The xyloside was administered either concurrent with or 3 weeks post-injection. In the latter case, the animals were randomly divided into control and treatment groups with no significant differences in tumor volume. The animals were sacrificed following 2-3 weeks of treatment, and tumor mass or volume was recorded.

[2] = tested on: rat C6 glioma cells; test: Cellular growth assay (crystal violet, A600), rat C6 glioma cells; format: cell-based; conditions: for growth-inhibitory effect compared to untreated cells (control): FIG. 1A; for effect on cell growth: FIG. 4; for inhibits growth: FIG. 1B
From the text: (§4) Cells were obtained from American type culture collection (ATCC, Rockville, Md.). Regular cell culture media, L-glutamine, penicillin-streptomycin, trypsin, and donor calf serum were obtained from Life Technologies. Dulbeccos Modified Earles Medium, medium 199 and Ham's F-12 medium were purchased from Sigma, difluoromethylornithine (DFMO) was from ILEX Oncology, San Antonio, Tex. Epidermal growth factor was purchased from Genzyme, Cambridge, Mass. and crystal violet from Merck, Germany.
(§5) Cells were cultured as monolayers in Dulbeccos Modified Earles Medium (DMEM) supplemented with 10% (v/v) fetal bovine serum, 2 mM L-glutamine, penicillin (100 U/mL) and streptomycin (100 μg/mL) in an incubator with humidified atmosphere and 5% CO2 at 37° C.
(§6) The growth assay procedure has been described elsewhere (Mani et al., 1998, Cancer Res. 58: 1099-1104). Cells were seeded into 96-well microculture plates at 3000 cells/well in DMEM supplemented with insulin (10 ng/mL), transferrin (25 ng/mL) and 10% fetal calf serum. After 4 h of plating the cells were placed in serum-free Ham's F-12 medium supplemented with insulin (10 ng/mL) and transferrin (25 ng/mL) for an additional 24 h. […] In some experiments cells were pre-treated with DFMO to up-regulate spermine uptake (Belting et al., 2003, J. Biol. Chem. 278: 47181-47189). Controls without growth factor as well as solvent (DMSO) controls were included. The total time of exposure to the various agents was 5 days. Cells were fixed in 1% glutaraldehyde dissolved in Hanks balanced salt solution (NaCl 80 g/L, KCl 4 g/l, glucose 10 g/L, KH2PO4 600 mg/L, NaHPO4 475 mg/L) for 15 min, then cell nuclei were stained with 0.1% crystal violet. After washing and cell lysis for 24 h in Triton X-100, the amount of bound dye was measured at A600 in a microplate photometer (Titertek multiscan). The results are presented as the difference between A600 obtained after 5 days and that obtained immediately after seeding of the cells (t=0).

[3] = after uptake by DFMO-treated cells; cited from earlier work
[4] = tested on: normal human lung fibroblasts; test: Cellular growth assay, normal human lung fibroblasts; format: cell-based
From the text: as §4, §5
The growth assay procedure has been described elsewhere (Mani et al., 1998, Cancer Res. 58: 1099-1104). Cells were seeded into 96-well microculture plates at 3000 cells/well in DMEM supplemented with insulin (10 ng/mL), transferrin (25 ng/mL) and 10% fetal calf serum. After 4 h of plating the cells were placed in serum-free Ham's F-12 medium supplemented with insulin (10 ng/mL) and transferrin (25 ng/mL) for an additional 24 h. […] After washing and cell lysis for 24 h in Triton X-100, the amount of bound dye was measured at A600 in a microplate photometer (Titertek multiscan). […]

[5] = tested on: human bladder carcinoma T24 cells; test: Cellular growth assay, human bladder carcinoma T24 cells; format: cell-based; conditions: for cytotoxic effect on T24 cells: 0.5 mM xyloside, FIG. 5A / FIG. 2
From the text: as §4, §5, §6

[6] = tested on: SV40 virus infected fibroblasts; test: Growth inhibition of SV40 virus infected fibroblasts; format: cell-based; conditions: combination with DFMO and spermine-NONOate
[7] = tested on: tumor cells located subcutaneously or orthotopically; test: Other animal experiments, tumor-bearing mice, various routes of administration; format: in vivo
Procedure: as §2, §3
Treatment with Xyl-2-Nap-6-OH reduce the average tumor load by 70-97% in mice receiving the compound concomitant with tumor cell inoculation as well as in mice with pre-formed tumors. […] Side-effects via inhibition of proteoglycan synthesis in cartilage and connective tissues is unlikely, as xyloside concentrations greater than 2 mM are required for their inhibition in vitro (Moses et al., 1999, Eur, J. Biochem. 26: 879-884).

[8] = Saturated solution used for dosing; format: physicochemical; conditions: drinking water / injection solution
Procedure: as §3

[9] = tested on: A549 cells; test: Growth inhibition of A549 cells; format: cell-based; conditions: combination with DFMO and spermine-NONOate
[10] = tested on: HepG2 hepatoma cells; test: Growth inhibition of HepG2 hepatoma cells; format: cell-based; conditions: combination with DFMO and spermine-NONOate
[11] = tested on: HepG2 hepatoma cells; conditions: Mani et al. Glycobiology 14: 387-397; cited from earlier work
[12] = tested on: rat C6 glioma cells implanted intracerebrally; test: Intracerebral C6 glioma tumors in rats; format: in vivo
Procedure: as §1, §2
as §3, with “In the latter case, the animals were randomly divided into control and treatment groups with no significant differences in tumor volume.” left out

[13] = tested on: A549 cells; conditions: Mani et al. Glycobiology 14: 387-397; cited from earlier work
[14] = tested on: SV40 virus infected fibroblasts; conditions: Mani et al. Glycobiology 14: 387-397; cited from earlier work
[15] = tested on: cells; test: Uptake of xyloside when added to cells; format: cell-based
From the text: Referring to FIG. 4, the results of treating rat C6 glioma cells with peracetylated Gal-4-Xyl-2-Nap-6-OH are shown. […] The reason for this difference is that peracetylated Gal-4-Xyl-2-Nap-6-OH is deacetylated by non-specific esterases after uptake into cells, whereby the resulting non-acetylated Gal-4-Xyl-2-Nap-6-OH remains trapped inside the cell resulting in a much higher local concentration. Accordingly, non-acetylated Gal-4-Xyl-2-Nap-6-OH is not taken up when added to cells.

SMILES: NCCC[C@](N)(C(=O)O)C(F)F [DFMO, α-difluoromethylornithine, reference compound]
- higher concentration of DFMO in the drinking water required for the same effect with DFMO alone ([1]; relative to 0.1% w/v DFMO given with Xyl-2-Nap-6-OH (83% reduction)): 10-20 fold
- growth-inhibitory effect compared to untreated cells (control) ([2]; 5 mM DFMO alone): no significant growth-inhibitory effect

SMILES: NCCCNCCCCN(CCCN)/[N+]([O-])=N/O [spermineNONOate, reference compound]
- half-life of intracellular NO release [3]: 4 h
- growth-inhibitory effect compared to untreated cells (control) ([2]; 5 μM spermineNONOate alone): no significant growth-inhibitory effect

SMILES: CC(=O)OC[C@H]1O[C@@H](O[C@@H]2CO[C@@H](Oc3ccc4cc(OC(C)=O)ccc4c3)[C@H](OC(C)=O)[C@H]2OC(C)=O)[C@H](OC(C)=O)[C@@H](OC(C)=O)[C@H]1OC(C)=O [peracetylated Gal-4-Xyl-2-Nap-6-OH]
- effect on cell growth ([2]; 0.2 mM xyloside alone): complete growth-arrest
- potency relative to Xyl-2-Nap-6-OH at the same concentrations ([2]; comparison of FIG. 4 with FIG. 1B): at least 5 fold
- effect on cell growth ([2]; xyloside in combination with 5 mM DFMO and 5 μM spermineNONOate): significant cytotoxic effect

SMILES: CC(=O)Oc1ccc2cc(O[C@@H]3OC[C@@H](OC(C)=O)[C@H](OC(C)=O)[C@H]3OC(C)=O)ccc2c1 [peracetylated Xyl-2-Nap-6-OH]
- effect on growth of normal human fibroblasts ([4]; 0.5 mM xyloside, FIG. 5B): does not affect growth
- cytotoxic effect on T24 cells [5]: clear cytotoxic effect

SMILES: Oc1ccc2cc(OC3OCC(O)C(O)C3O)ccc2c1 (centres unmarked) [Xyl-2-Nap-6-OH]
- subcutaneous C6 glioma tumor weight reduced ([1]; SCID mice, daily contralateral s.c. injections of 1.7 mM solution, 0.5 ml, 2 weeks, FIG. 6A): 78%
- tumor-load reduced ([1]; mice treated with xyloside plus DFMO 0.1% w/v via the drinking water, FIG. 6C): 83%
- reduction of cell growth ([4]; 0.2 mM xyloside, 5 mM DFMO and 5 μM spermineNONOate, FIG. 3): 20%
- inhibits growth ([2]; 0.5 mM xyloside alone): 65%
- inhibits growth ([2]; 0.5 mM xyloside combined with 5 mM DFMO and 5 μM spermineNONOate): 93%
- effect of xyloside with DFMO and spermine-NONOate [6]: Synergistic cytotoxic effects
- reduction of average tumor load ([7]; mice, compound given concomitant with tumor cell inoculation or to pre-formed tumors): 70-97%
- toxic side-effects in vivo ([7]; mouse, in vivo): lack of obvious toxic side-effects
- absorption and availability to tumor cells ([7]; various ways of administration including oral): adsorbed and made available to tumor cells
- concentration of saturated solution [8]: 1.7 mM
- effect of xyloside with DFMO and spermine-NONOate [9]: Synergistic cytotoxic effects
- effect on cell growth ([5]; 0.2 mM xyloside alone, FIG. 2): marginally affected
- effect on cell growth ([5]; 0.2 mM xyloside and 5 mM DFMO with 2.5 5 μM spermineNONOate): insufficient
- effect on cell growth ([5]; 0.2 mM xyloside combined with 5 mM DFMO and 5 μM spermineNONOate, FIG. 2): complete cell death
- effect on cell growth ([5]; 0.5 mM xyloside alone, FIG. 2): completely growth-arrested
- cytotoxic effect on T24 cells [5]: marginally cytotoxic
- effect of xyloside with DFMO and spermine-NONOate [10]: Synergistic cytotoxic effects
- growth inhibition [11]: selectively inhibits growth
- blood-brain barrier penetration ([12]; inferred from reduced intracerebral tumor volume in rats): can penetrate the blood-brain barrier
- tumor volume ([12]; rats, intracerebral C6 glioma, daily s.c. injections of 1.7 mM solution, 5 ml, 2 weeks, FIG. 6B): reduced
- growth inhibition [13]: selectively inhibits growth
- growth inhibition [14]: selectively inhibits growth

SMILES: OC[C@H]1O[C@@H](O[C@@H]2CO[C@@H](Oc3ccc4cc(O)ccc4c3)[C@H](O)[C@H]2O)[C@H](O)[C@@H](O)[C@H]1O [Gal-4-Xyl-2-Nap-6-OH, 2-(6-hydroxynaphthyl)-4-O-(β-D-galactopyranosyl)-β-D-xylopyranoside]
- uptake when added to cells [15]: not taken up
